Patent US20260217708A1, “FUSED BENZAZEPINE DERIVATIVES FOR USE IN THE TREATMENT OF CANCER AND EPILEPSY” (UCB BIOPHARMA SRL, priority 2023, published 2026)

How the values were obtained:
system Xc^− [1] = biological target: T1, system Xc^− (Homo sapiens, UniProt Q9UPY5); experiment: Cystine-induced glutamate release assay; format: cell-based; design: endogenous in cells; host or cells: H4 cells; conditions: H4 cells, sodium-free HEPES buffer, 50 μM L-Cystine, 2 hours, Amplex Red glutamate readout; read-out: pIC50 Cystine-induced glutamate release assay (converted)
T1 sequence (Q9UPY5 1-501): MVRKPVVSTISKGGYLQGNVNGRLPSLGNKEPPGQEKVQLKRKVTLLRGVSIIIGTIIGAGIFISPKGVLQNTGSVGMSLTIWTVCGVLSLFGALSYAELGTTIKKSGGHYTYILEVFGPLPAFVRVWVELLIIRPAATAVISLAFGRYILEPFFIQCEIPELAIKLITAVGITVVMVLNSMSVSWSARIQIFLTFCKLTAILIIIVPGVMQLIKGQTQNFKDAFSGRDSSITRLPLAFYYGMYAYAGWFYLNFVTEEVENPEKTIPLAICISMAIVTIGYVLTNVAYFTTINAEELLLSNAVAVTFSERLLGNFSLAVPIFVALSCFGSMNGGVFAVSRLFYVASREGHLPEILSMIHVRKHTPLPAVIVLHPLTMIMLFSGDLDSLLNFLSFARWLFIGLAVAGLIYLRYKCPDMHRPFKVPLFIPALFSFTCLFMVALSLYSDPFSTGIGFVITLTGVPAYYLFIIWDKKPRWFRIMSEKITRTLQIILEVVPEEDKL
T1 sequence (P08195 1-529 partner): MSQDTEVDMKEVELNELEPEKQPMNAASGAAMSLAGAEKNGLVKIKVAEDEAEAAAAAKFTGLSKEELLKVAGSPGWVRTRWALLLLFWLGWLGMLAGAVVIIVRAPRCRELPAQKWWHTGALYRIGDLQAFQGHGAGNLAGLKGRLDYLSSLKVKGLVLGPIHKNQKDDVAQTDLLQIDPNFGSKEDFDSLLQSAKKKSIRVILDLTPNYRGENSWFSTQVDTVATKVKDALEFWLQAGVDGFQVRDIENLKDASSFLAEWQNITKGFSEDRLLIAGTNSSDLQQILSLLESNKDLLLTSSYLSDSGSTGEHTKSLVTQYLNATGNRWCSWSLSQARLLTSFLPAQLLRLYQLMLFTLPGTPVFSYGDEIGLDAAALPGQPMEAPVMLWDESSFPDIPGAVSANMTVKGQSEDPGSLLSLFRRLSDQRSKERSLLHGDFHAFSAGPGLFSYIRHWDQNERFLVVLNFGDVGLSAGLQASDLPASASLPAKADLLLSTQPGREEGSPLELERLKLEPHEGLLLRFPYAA
How it was run: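 H4 cells in sodium-free HEPES buffer (pH 7.4), 2 days after plating; glutamate release induced with 50 μM L-cystine plus compound (1% DMSO), 2 h at 37 °C. Supernatant glutamate measured by Amplex Red fluorescence; IC50/pIC50 derived between 1% DMSO and 50 μM erastin controls.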

system Xc^− [2] = biological target: T1, system Xc^−; experiment: [^14C]L-Cystine uptake assay; format: cell-based; design: endogenous in cells; host or cells: H4 cells; conditions: H4 cells, sodium-free HEPES buffer, 0.5 μM L-[14C]Cystine and 4.5 μM L-Cystine, 1 hour at 37° C.; read-out: pIC50 [^14C] L-Cystine uptake assay (converted)
How it was run: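 H4 cells at 5×10^4 cells/well in sodium-free HEPES buffer were preincubated 15 min with compounds (1% DMSO). Uptake of 0.5 μM [14C]L-cystine plus 4.5 μM unlabelled L-cystine ran 1 hour at 37° C on scintillating plates. IC50 was set between 1% DMSO and 50 μM Erastin controls and expressed as pIC50.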

| SMILES | IC50 (system Xc^− [1]) [nM] | IC50 (system Xc^− [2]) [nM] |
| --- | --- | --- |
| CC1C(=O)N(CC(=O)Nc2ccc(C(F)F)cc2)c2cc(N3CC4(COC4)C3)nc(F)c2-c2cccnc21 (single isomer, unassigned) [#284, N-[4-(difluoromethyl)phenyl]-2-[3-fluoro-10-methyl-5-(2-oxa-6-azaspiro[3.3]heptan-6-yl)-9-oxo-4,8,12-triazatricyclo[9.4.0.0^2,7]pentadeca-1(15),2,4,6,11,13-hexaen-8-yl]acetamide] | < 15.8 | < 15.8 |
| CC1C(=O)N(CC(=O)Nc2ccc(C(F)F)cc2)c2cc(N3CC4(C3)CC4(F)F)nc(F)c2-c2cccnc21 (single isomer, unassigned) [#286, 2-[5-(2,2-difluoro-5-azaspiro[2.3]hexan-5-yl)-3-fluoro-10-methyl-9-oxo-4,8,12-triazatricyclo[9.4.0.0^2,7]pentadeca-1(15),2,4,6,11,13-hexaen-8-yl]-N-[4-(difluoromethyl)phenyl]acetamide] | < 15.8 | < 15.8 |
| CC1C(=O)N(CC(=O)Nc2ccc(C(F)F)cc2)c2cc(N3[C@@H]4CCC[C@H]3C4)nc(F)c2-c2cccnc21 (single isomer, unassigned) [#287, 2-[5-(6-azabicyclo[3.1.1]heptan-6-yl)-3-fluoro-10-methyl-9-oxo-4,8,12-triazatricyclo[9.4.0.0^2,7]pentadeca-1(15),2,4,6,11,13-hexaen-8-yl]-N-[4-(difluoromethyl)phenyl]acetamide] | 15.8 to 39.8 | < 15.8 |
| CC1C(=O)N(CC(=O)Nc2ccc(C(F)F)cc2)c2cc(N3CC(C)(F)C3)nc(F)c2-c2cccnc21 (single isomer, unassigned) [#288, N-[4-(difluoromethyl)phenyl]-2-[3-fluoro-5-(3-fluoro-3-methyl-azetidin-1-yl)-10-methyl-9-oxo-4,8,12-triazatricyclo[9.4.0.0^2,7]pentadeca-1(15),2,4,6,11,13-hexaen-8-yl]acetamide] | < 15.8 | < 15.8 |
| C[C@H]1C(=O)N(CC(=O)Nc2ccc(C(F)F)cc2)c2cc(N3CC4C(C3)C4(F)F)nc(F)c2-c2cccnc21 (single isomer, unassigned) [#289, 2-[5-(6,6-difluoro-3-azabicyclo[3.1.0]hexan-3-yl)-3-fluoro-10-methyl-9-oxo-4,8,12-triazatricyclo[9.4.0.0^2,7]pentadeca-1(11),2(7),3,5,12,14-hexaen-8-yl]-N-[4-(difluoromethyl)phenyl]acetamide] | 15.8 to 39.8 | < 15.8 |
| CC1C(=O)N(CC(=O)Nc2ccc(C(F)F)cc2)c2cc(N3C[C@H]4C[C@@H](C3)C4(F)F)nc(F)c2-c2cccnc21 (single isomer, unassigned) [#290, 2-[5-(6,6-difluoro-3-azabicyclo[3.1.1]heptan-3-yl)-3-fluoro-10-methyl-9-oxo-4,8,12-triazatricyclo[9.4.0.0^2,7]pentadeca-1(11),2(7),3,5,12,14-hexaen-8-yl]-N-[4-(difluoromethyl)phenyl]acetamide] | 39.8 to 100 | 15.8 to 39.8 |
| COc1nccc2c1-c1cccnc1C(C)C(=O)N2CC(=O)Nc1ccc(Cl)c(F)c1 (single isomer, unassigned) [#297, N-(4-chloro-3-fluoro-phenyl)-2-[3-methoxy-10-methyl-9-oxo-4,8,12-triazatricyclo[9.4.0.0^2,7]pentadeca-1(15),2(7),3,5,11,13-hexaen-8-yl]acetamide] | < 15.8 | < 15.8 |
| COc1nccc2c1-c1cccnc1C(C)C(=O)N2CC(=O)Nc1ccc(C(F)F)cc1 (single isomer, unassigned) [#298, N-[4-(difluoromethyl)phenyl]-2-[3-methoxy-10-methyl-9-oxo-4,8,12-triazatricyclo[9.4.0.0^2,7]pentadeca-1(15),2(7),3,5,11,13-hexaen-8-yl]acetamide] | < 15.8 | < 15.8 |
| COc1cc2c(c(C)n1)-c1cccnc1C(C)C(=O)N2CC(=O)Nc1ccc(Cl)c(F)c1 (single isomer, unassigned) [#300, N-(4-chloro-3-fluoro-phenyl)-2-[5-methoxy-3,10-dimethyl-9-oxo-4,8,12-triazatricyclo[9.4.0.0^2,7]pentadeca-1(15),2(7),3,5,11,13-hexaen-8-yl]acetamide] | < 15.8 | < 15.8 |
| CC1C(=O)N(CC(=O)Nc2ccc(C(F)F)cc2)c2cc(C#N)ccc2-c2cc(F)cnc21 (single isomer, unassigned) [#308, 2-[9-cyano-2-fluoro-5-methyl-6-oxo-5H-pyrido[2,3-d][1]benzazepin-7-yl]-N-[4-(difluoromethyl)phenyl]acetamide] | < 15.8 | 15.8 to 39.8 |

Second part, the molecule after the results:

| IC50 (system Xc^− [1]) [nM] | IC50 (system Xc^− [2]) [nM] | SMILES |
| --- | --- | --- |
| < 15.8 | 15.8 to 39.8 | CC1C(=O)N(CC(=O)Nc2ccc(C(F)F)cc2)c2cc(N3CC(F)(F)C3)nc(F)c2-c2ccc(F)cc21 (single isomer, unassigned) [#291, 2-[3-(3,3-difluoroazetidin-1-yl)-1,9-difluoro-7-methyl-6-oxo-7H-pyrido[4,3-d][3]benzazepin-5-yl]-N-[4-(difluoromethyl)phenyl]acetamide] |
| 39.8 to 100 | 15.8 to 39.8 | CC1C(=O)N(CC(=O)Nc2ccc(Cl)c(F)c2)c2cc(N3CC(F)(F)C3)ncc2-c2cccnc21 (single isomer, unassigned) [#293, N-(4-chloro-3-fluoro-phenyl)-2-[5-(3,3-difluoroazetidin-1-yl)-10-methyl-9-oxo-4,8,12-triazatricyclo[9.4.0.0^2,7]pentadeca-1(15),2,4,6,11,13-hexaen-8-yl]acetamide] |
| < 15.8 | < 15.8 | COc1cc2c(c(C)n1)-c1cccnc1C(C)C(=O)N2CC(=O)Nc1ccc(C(F)F)cc1 (single isomer, unassigned) [#299, N-[4-(difluoromethyl)phenyl]-2-[5-methoxy-3,10-dimethyl-9-oxo-4,8,12-triazatricyclo[9.4.0.0^2,7]pentadeca-1(15),2(7),3,5,11,13-hexaen-8-yl]acetamide] |
| 39.8 to 100 | 39.8 to 100 | Cc1cc2c(c(C(F)F)n1)-c1cccnc1C(C)C(=O)N2CC(=O)Nc1ccc(C(F)F)cc1 (single isomer, unassigned) [#301, 2-[3-(difluoromethyl)-5,10-dimethyl-9-oxo-4,8,12-triazatricyclo[9.4.0.0^2,7]pentadeca-1(11),2(7),3,5,12,14-hexaen-8-yl]-N-[4-(difluoromethyl)phenyl]acetamide] |
| 39.8 to 100 | 15.8 to 39.8 | Cc1cc2c(c(C(F)F)n1)-c1cccnc1C(C)C(=O)N2CC(=O)Nc1ccc(Cl)c(F)c1 (single isomer, unassigned) [#302, N-(4-chloro-3-fluoro-phenyl)-2-[3-(difluoromethyl)-5,10-dimethyl-9-oxo-4,8,12-triazatricyclo[9.4.0.0^2,7]pentadeca-1(15),2,4,6,11,13-hexaen-8-yl]acetamide] |
| < 15.8 | 15.8 to 39.8 | Cc1cc2c(c(F)n1)-c1ncc(F)cc1C(C)C(=O)N2CC(=O)Nc1ccc(Cl)c(F)c1 (single isomer, unassigned) [#303, N-(4-chloro-3-fluoro-phenyl)-2-[5,15-difluoro-8,13-dimethyl-9-oxo-3,10,14-triazatricyclo[9.4.0.0^2,7]pentadeca-1(15),2,4,6,11,13-hexaen-10-yl]acetamide] |
| 15.8 to 39.8 | 15.8 to 39.8 | Cc1cc2c(c(F)n1)-c1ncc(F)cc1C(C)C(=O)N2CC(=O)Nc1ccc(C(F)F)cc1 (single isomer, unassigned) [#304, 2-[5,15-difluoro-8,13-dimethyl-9-oxo-3,10,14-triazatricyclo[9.4.0.0^2,7]pentadeca-1(15),2,4,6,11,13-hexaen-10-yl]-N-[4-(difluoromethyl)phenyl]acetamide] |
| < 15.8 | 15.8 to 39.8 | CC1C(=O)N(CC(=O)Nc2ccc(Cl)c(F)c2)c2cc(C#N)ccc2-c2cc(F)cnc21 (single isomer, unassigned) [#307, N-(4-chloro-3-fluoro-phenyl)-2-[9-cyano-2-fluoro-5-methyl-6-oxo-5H-pyrido[2,3-d][1]benzazepin-7-yl]acetamid] |
